From paper PMC3890260 (Chemical science (Royal Society of Chemistry : 2010), 2013)

Experiments:
[1] = molecular target: T1, V. cholerae CqsS receptor (Vibrio cholerae serotype O1, UniProt Q9KM66); conditions: cited from earlier work
[2] = molecular target: T1, V. cholerae CqsS receptor; experiment: CqsS agonist bioassay; format: cell-based

T1 sequence (Q9KM66 whole entry, looked up): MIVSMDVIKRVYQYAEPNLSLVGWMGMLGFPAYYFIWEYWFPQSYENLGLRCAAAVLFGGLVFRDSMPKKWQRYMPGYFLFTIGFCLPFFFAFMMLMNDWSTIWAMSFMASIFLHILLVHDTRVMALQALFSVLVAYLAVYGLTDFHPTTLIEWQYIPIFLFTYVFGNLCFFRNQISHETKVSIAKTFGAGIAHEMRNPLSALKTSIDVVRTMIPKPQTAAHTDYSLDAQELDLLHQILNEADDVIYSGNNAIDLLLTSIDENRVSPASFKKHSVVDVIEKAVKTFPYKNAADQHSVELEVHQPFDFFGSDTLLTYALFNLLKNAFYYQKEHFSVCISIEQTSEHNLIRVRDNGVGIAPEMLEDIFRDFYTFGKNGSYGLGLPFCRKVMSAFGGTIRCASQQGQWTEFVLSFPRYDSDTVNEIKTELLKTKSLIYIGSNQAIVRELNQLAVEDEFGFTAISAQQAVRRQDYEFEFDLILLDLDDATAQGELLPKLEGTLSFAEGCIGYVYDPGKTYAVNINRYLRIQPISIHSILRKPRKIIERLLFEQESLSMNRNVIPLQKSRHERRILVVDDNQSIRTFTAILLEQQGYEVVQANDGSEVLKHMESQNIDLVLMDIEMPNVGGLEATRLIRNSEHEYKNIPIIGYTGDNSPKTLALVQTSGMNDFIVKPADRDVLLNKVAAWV

## C/C=C(\N)C(=O)CCCCCCCCC [Ea-CAI-1]
[1]
  potency as CqsS agonist compared to CAI-1: an order of magnitude more potent
[2]; CqsS agonist bioassay, mean of triplicate analyses
  EC50: 4.1 nM
[2]; Ea-CAI-1 set at 100%
  % Response (percent maximal bioluminescence with respect to Ea-CAI-1): 100%
